Experimental data reported in patent US20230303513A1, “OXOPYRROLIDINE UREA FPR2 AGONISTS” (BRISTOL-MYERS SQUIBB COMPANY, priority 2020, published 2023).
Where two headings read alike, the source gives them in different places.

Columns and labels:
human FPR1 = human FPR1 (Homo sapiens (Human), UniProt P21462); assay: FPR1 cyclic adenosine monophosphate (cAMP) assay; type: cell-based; details: read-out: hFPR1 cAMP EC50
From the text: (§1) N-formyl peptide receptors (FPRs) are a family of chemo attractant receptors that facilitate leukocyte response during inflammation. FPRs belong to the seven-transmembrane G protein-coupled receptor superfamily and are linked to inhibitory G-proteins (Gi). Three family members (FPR1, FPR2 and FPR3) have been identified in humans and are predominantly found in myeloid cells with varied distribution and have also been reported in multiple organs and tissues. After agonist binding, the FPRs activate a multitude of physiological pathways, such as intra cellular signaling transduction, Ca^21 mobilization and transcription. The family interacts with a diverse set of ligands that includes proteins, polypeptides and fatty acid metabolites which activate both pro-inflammatory and pro-resolution downstream responses. FPR2 and FPR1 Cyclic Adenosine Monophosphate (cAMP) Assays were used to measure the activity of the compounds in this patent.
(§2) FPR2 and FPR1 Cyclic Adenosine Monophosphate (cAMP) Assays. A mixture of forskolin (5 μM final for FPR2 or 10 μM final for FPR1) and IBMX (200 μM final) were added to 384-well Proxiplates (Perkin-Elmer) pre-dotted with test compounds in DMSO (1% final) at final concentrations in the range of 0.020 nM to 100 μM. Chinese Hamster Ovary cells (CHO) overexpressing human FPR1 or human FPR2 receptors were cultured in F-12 (Ham's) medium supplemented with 10% qualified FBS, 250 μg/ml zeocin and 300 μg/ml hygromycin (Life Technologies). Reactions were initiated by adding 2,000 human FPR2 cells per well or 4,000 human FPR1 cells per well in Dulbecco's PBS (with calcium and magnesium) (Life Technologies) supplemented with 0.1% BSA (Perkin-Elmer). The reaction mixtures were incubated for 30 min at room temperature. The level of intracellular cAMP was determined using the HTRF HiRange cAMP assay reagent kit (Cisbio) according to manufacturer's instruction. Solutions of cryptate conjugated anti-cAMP and d2 flurorophore-labelled cAMP were made in a supplied lysis buffer separately. Upon completion of the reaction, the cells were lysed with equal volume of the d2-cAMP solution and anti-cAMP solution. After a 1-h room temperature incubation, time-resolved fluorescence intensity was measured using the Envision (Perkin-Elmer) at 400 nm excitation and dual emission at 590 nm and 665 nm. A calibration curve was constructed with an external cAMP standard at concentrations ranging from 1 μM to 0.1 μM by plotting the fluorescent intensity ratio from 665 nm emission to the intensity from the 590 nm emission against cAMP concentrations. The potency and activity of a compound to inhibit cAMP production was then determined by fitting to a 4-parametric logistic equation from a plot of cAMP level versus compound concentrations.

human FPR2 = human FPR2 (Homo sapiens (Human), UniProt P25090); assay: FPR2 cyclic adenosine monophosphate (cAMP) assay; type: cell-based; details: read-out: hFPR2 cAMP2 EC50
human FPR2, sequence (P25090 whole entry): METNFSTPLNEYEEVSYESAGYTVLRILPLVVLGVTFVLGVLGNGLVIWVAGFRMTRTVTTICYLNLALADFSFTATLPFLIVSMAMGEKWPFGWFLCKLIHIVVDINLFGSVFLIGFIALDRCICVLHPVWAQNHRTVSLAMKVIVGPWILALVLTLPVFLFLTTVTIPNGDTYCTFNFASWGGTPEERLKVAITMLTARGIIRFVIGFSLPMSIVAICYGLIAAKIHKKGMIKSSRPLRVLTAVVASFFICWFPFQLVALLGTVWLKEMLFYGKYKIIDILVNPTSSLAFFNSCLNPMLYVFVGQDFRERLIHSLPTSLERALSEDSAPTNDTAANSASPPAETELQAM
From the text: as §1, §2

[1] = CHO cells overexpressing human FPR1, forskolin 10 μM, IBMX 200 μM, inhibition of cAMP production, HTRF
[2] = CHO cells overexpressing human FPR2, forskolin 5 μM, IBMX 200 μM, inhibition of cAMP production, HTRF

human FPR1, sequence (P21462 whole entry): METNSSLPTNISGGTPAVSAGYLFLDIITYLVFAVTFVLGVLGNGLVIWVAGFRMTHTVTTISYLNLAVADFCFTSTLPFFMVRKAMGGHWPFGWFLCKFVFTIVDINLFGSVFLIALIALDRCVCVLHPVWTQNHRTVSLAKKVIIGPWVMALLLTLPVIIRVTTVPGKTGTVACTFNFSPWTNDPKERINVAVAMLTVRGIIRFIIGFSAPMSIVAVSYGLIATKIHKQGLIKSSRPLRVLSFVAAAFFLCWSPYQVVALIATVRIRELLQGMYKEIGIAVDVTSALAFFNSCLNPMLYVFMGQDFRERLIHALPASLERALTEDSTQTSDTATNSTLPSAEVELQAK

Row | SMILES | EC50 (human FPR1; [1]) [nM] | EC50 (human FPR2; [2]) [nM] | EC50 (human FPR1) [nM] | EC50 (human FPR2) [nM]
1 | COc1ccc([C@H]2C[C@@H]2NC(=O)N[C@@H]2C(=O)N(c3ncccc3C(F)(F)F)C[C@H]2c2c(F)cc(OC)cc2F)cc1 [Example 49] | 2500 | 9.9 | – | –
2 | COc1cc(F)c([C@@H]2CN(c3ncccc3C(F)(F)F)C(=O)[C@H]2NC(=O)NC2CCC3(CC2)CC3)c(F)c1 [Example 67] | > 10000 | 97 | – | –
3 | CNC(=O)CNc1ccnc(N2C[C@@H](c3c(F)cc(OC)cc3F)[C@H](NC(=O)N[C@H]3CC[C@H](C(F)F)CC3)C2=O)c1C(F)(F)F [Example 72] | > 1000 | 25 | – | –
4 | COc1cc(F)c([C@@H]2CN(c3nccc(NC4CCOC4)c3C(F)(F)F)C(=O)[C@H]2NC(=O)N[C@H]2CC[C@H](C(F)F)CC2)c(F)c1 (single isomer, unassigned) [Example 100] | > 10000 | 9 | – | –
5 | COc1cc(F)c([C@@H]2CN(c3nccc(NCC4CCOC4)c3C(F)(F)F)C(=O)[C@H]2NC(=O)N[C@H]2CC[C@H](C(F)F)CC2)c(F)c1 (single isomer, unassigned) [Example 74] | > 1000 | 26 | – | –
6 | COc1cc(F)c([C@@H]2CN(c3nccc(NCCS(C)(=O)=O)c3C(F)(F)F)C(=O)[C@H]2NC(=O)N[C@H]2CC[C@H](C(F)F)CC2)c(F)c1 [Example 98] | > 5000 | 7.2 | – | –
7 | COc1cc(F)c([C@@H]2CN(c3nccc(N4CCOCC4)c3C(F)(F)F)C(=O)C2NC(=O)N[C@H]2CC[C@H](C(F)F)CC2)c(F)c1 (stereo partly drawn) [Example 1, 1-((3S,4R)-4-(2,6-Difluoro-4-methoxyphenyl)-1-(4-morpholino-3-(trifluoromethyl)pyridin-2-yl)-2-oxopyrrolidin-3-yl)-3-((1r,4S)-4-(difluoromethyl)cyclohexyl) urea] | 6800 | 14.8 | – | –
8 | CNC(=O)C(C)Nc1ccnc(N2C[C@@H](c3c(F)cc(OC)cc3F)[C@H](NC(=O)N[C@H]3CC[C@H](C(F)F)CC3)C2=O)c1C(F)(F)F (single isomer, unassigned) [Example 76] | > 1000 | 23 | – | –
9 | COc1cc(F)c([C@@H]2CN(c3nccc(NCC4CCOC4)c3C(F)(F)F)C(=O)[C@H]2NC(=O)N[C@H]2CC[C@H](C(F)F)CC2)c(F)c1 (single isomer, unassigned) [Example 73] | > 1000 | 320 | – | –
10 | COCCn1cccc(N2C[C@@H](c3c(F)cc(OC)cc3F)[C@H](NC(=O)N[C@H]3CC[C@H](C(F)F)CC3)C2=O)c1=O [Example 70] | 1200 | 33 | – | –
11 | COc1cc(F)c([C@@H]2CN(c3nccc(NCC(C)(C)O)c3C(F)(F)F)C(=O)[C@H]2NC(=O)N[C@H]2CC[C@H](C(F)F)CC2)c(F)c1 [Example 104] | 5000 | 39 | – | –
12 | COc1cc(F)c([C@@H]2CN(c3cccn(CCO)c3=O)C(=O)[C@H]2NC(=O)N[C@H]2CC[C@H](C(F)F)CC2)c(F)c1 [Example 65] | 5000 | 55 | – | –
13 | COc1cc(F)c([C@@H]2CN(c3nccc(NCC4CCCO4)c3C(F)(F)F)C(=O)[C@H]2NC(=O)N[C@H]2CC[C@H](C(F)F)CC2)c(F)c1 (some centres unmarked) [Example 93] | 1700 | 14 | – | –
14 | COc1cc(F)c([C@@H]2CN(c3ncccc3C(F)(F)F)C(=O)[C@H]2NC(=O)N[C@H]2CC[C@H](C(F)F)CC2)c(F)c1 [Example 32] | – | – | 1200 | 3.9

Other lines, results leading:

Row | EC50 (human FPR1; [1]) [nM] | EC50 (human FPR2; [2]) [nM] | EC50 (human FPR1) [nM] | EC50 (human FPR2) [nM] | SMILES
15 | 3 | 3.3 | – | – | COc1cc(F)c([C@@H]2CN(c3ncccc3C(F)(F)F)C(=O)[C@H]2NC(=O)NC2COc3cc(OC)ccc3C2)c(F)c1 (some centres unmarked) [Example 28]
16 | 0.3 | 1.4 | – | – | COc1cc(F)c([C@@H]2CN(c3c(C)ccn(CCO)c3=O)C(=O)[C@H]2NC(=O)NC2CCc3cc(OC)ccc3C2)c(F)c1 (single isomer, unassigned) [Example 84]
17 | 62 | 4.5 | – | – | COc1ccc([C@H]2C[C@@H]2NC(=O)N[C@@H]2C(=O)N(c3ncccc3C(F)(F)F)C[C@H]2c2c(F)cc(OC)cc2F)cc1 [Example 35]
18 | 1.2 | 1.6 | – | – | COc1cc(F)c([C@@H]2CN(c3cccn(C(F)F)c3=O)C(=O)[C@H]2NC(=O)NC2CCc3cc(OC)ccc3C2)c(F)c1 (single isomer, unassigned) [Example 94]
19 | 54 | 53 | – | – | COc1cc(F)c([C@@H]2CN(c3ncccc3C(F)(F)F)C(=O)[C@H]2NC(=O)NC2CCc3cc(OC)ccc3C2)c(F)c1 (some centres unmarked) [Example 64]
20 | 4.7 | 1.7 | – | – | COCCn1cccc(N2C[C@@H](c3ccc(OC)cc3)[C@H](NC(=O)NC3CCc4cc(Cl)ccc4C3)C2=O)c1=O (some centres unmarked) [Example 16]
21 | 0.1 | 0.4 | – | – | CCn1cccc(N2C[C@@H](c3ccc(OC)cc3)[C@H](NC(=O)NC3CCc4cc(Cl)ccc4C3)C2=O)c1=O (some centres unmarked) [Example 6]
22 | 24.6 | 13 | – | – | COCCn1cccc(N2C[C@@H](c3c(F)cc(OC)cc3F)[C@H](NC(=O)NC3CCc4cc(OC)ccc4C3)C2=O)c1=O (some centres unmarked) [Example 53]
23 | 2.1 | 2.7 | – | – | COCCn1ccc(C)c(N2C[C@@H](c3c(F)cc(OC)cc3F)[C@H](NC(=O)NC3CCc4cc(Cl)ccc4C3)C2=O)c1=O (some centres unmarked) [Example 22]
24 | 0.5 | 0.6 | – | – | COc1cc(F)c([C@@H]2CN(c3c(OC)ccn(C)c3=O)C(=O)[C@H]2NC(=O)NC2CCc3cc(Cl)ccc3C2)c(F)c1 (some centres unmarked) [Example 8]
25 | 0.8 | 1.4 | – | – | COc1cc(F)c([C@@H]2CN(c3cccn(CCO)c3=O)C(=O)[C@H]2NC(=O)NC2CCc3cc(Cl)ccc3C2)c(F)c1 (some centres unmarked) [Example 14]
26 | 470 | 29 | – | – | COc1cc(F)c([C@H]2[C@H](NC(=O)NC3CCc4cc(OC)ccc4C3(C)C)C(=O)N(c3ncccc3C(F)(F)F)[C@H]2C)c(F)c1 (some centres unmarked) [Example 59]
27 | 0.5 | 5.6 | – | – | CCn1cccc(N2C[C@@H](c3c(F)cc(OC)cc3F)[C@H](NC(=O)NC3CCc4cc(OC)ccc4C3)C2=O)c1=O (some centres unmarked) [Example 41]
28 | 730 | 6.2 | – | – | COc1cc(F)c([C@@H]2CN(c3nccc(NC4CCOC4)c3C(F)(F)F)C(=O)[C@H]2NC(=O)N[C@H]2CC[C@H](C(F)F)CC2)c(F)c1 (single isomer, unassigned) [Example 99]
29 | 0.8 | 0.9 | – | – | CCn1cccc(N2C[C@@H](c3ccc(OC)cc3)[C@H](NC(=O)NC3CCc4cc(OC)ccc4C3)C2=O)c1=O (some centres unmarked) [Example 12]
30 | 600 | 7.4 | – | – | COc1cc(F)c([C@H]2[C@H](NC(=O)N[C@H]3CC[C@H](C(F)F)CC3)C(=O)N(c3ncccc3OC)[C@H]2C)c(F)c1 [Example 48]
31 | 562 | 6.7 | – | – | COCCn1cccc(N2C[C@@H](c3c(F)cc(OC)cc3F)[C@H](NC(=O)NC3CCc4cc(OC)ccc4C3(C)C)C2=O)c1=O (some centres unmarked) [Example 45]
32 | 4.2 | 4 | – | – | COc1cc(F)c([C@@H]2CN(c3ncccc3C(F)(F)F)C(=O)[C@H]2NC(=O)NC2COc3cc(OC)ccc3C2)c(F)c1 (some centres unmarked) [Example 33]
33 | 4.3 | 7.1 | – | – | COc1cc(F)c([C@H]2[C@H](NC(=O)NC3CCc4cc(OC)ccc4C3)C(=O)N(c3cccn(CCO)c3=O)[C@H]2C)c(F)c1 (single isomer, unassigned) [Example 89]
34 | 40 | 20 | – | – | COCC(CO)n1cccc(N2C[C@@H](c3c(F)cc(OC)cc3F)[C@H](NC(=O)NC3CCc4cc(OC)ccc4C3)C2=O)c1=O (single isomer, unassigned) [Example 2]
